Reference: patent publication US9938299B2, “Glycosidase inhibitors and uses thereof” (MERCK SHARP & DOHME CORP., priority 2012, dated 2018)
Read-outs that look alike come from different tables or passages of the source.

What was measured:
human O-GlcNAcase = target: T1, human O-GlcNAcase (Homo sapiens, UniProt O60502); assay: Determination of KI values for inhibition of O-GlcNAcase activity (fluorogenic 4-methylumbelliferyl GlcNAc substrate); assay type: biochemical
T1 sequence (O60502 1-916): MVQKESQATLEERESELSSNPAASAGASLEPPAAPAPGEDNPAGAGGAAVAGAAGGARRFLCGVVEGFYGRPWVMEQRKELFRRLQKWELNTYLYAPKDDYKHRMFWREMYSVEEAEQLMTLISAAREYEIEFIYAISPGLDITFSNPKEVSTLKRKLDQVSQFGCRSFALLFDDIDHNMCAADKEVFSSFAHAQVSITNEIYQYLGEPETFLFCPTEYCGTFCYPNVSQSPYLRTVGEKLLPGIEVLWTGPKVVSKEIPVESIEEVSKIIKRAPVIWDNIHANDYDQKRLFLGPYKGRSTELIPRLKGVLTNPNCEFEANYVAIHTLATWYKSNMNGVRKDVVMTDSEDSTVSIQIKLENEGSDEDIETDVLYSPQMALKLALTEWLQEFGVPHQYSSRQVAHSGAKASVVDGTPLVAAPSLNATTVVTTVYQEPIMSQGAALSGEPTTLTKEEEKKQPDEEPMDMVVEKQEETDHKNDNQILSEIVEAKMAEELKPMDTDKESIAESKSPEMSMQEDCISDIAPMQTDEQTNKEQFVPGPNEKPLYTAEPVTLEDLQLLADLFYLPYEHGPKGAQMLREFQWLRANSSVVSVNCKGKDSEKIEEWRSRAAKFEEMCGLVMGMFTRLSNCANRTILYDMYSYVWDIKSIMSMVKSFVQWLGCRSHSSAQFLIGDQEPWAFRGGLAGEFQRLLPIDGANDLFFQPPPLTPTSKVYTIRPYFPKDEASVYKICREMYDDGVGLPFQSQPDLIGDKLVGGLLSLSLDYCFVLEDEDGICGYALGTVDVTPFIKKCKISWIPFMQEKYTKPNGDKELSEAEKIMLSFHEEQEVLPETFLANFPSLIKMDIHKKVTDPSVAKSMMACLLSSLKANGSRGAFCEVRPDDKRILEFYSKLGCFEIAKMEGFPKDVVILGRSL
Description: Assay for Determination of […] for Inhibition of O-GlcNAcase Activity
Experimental procedure for kinetic analyses: Enzymatic reactions were carried out in a reaction containing 50 mM NaH2PO4, 100 mM NaCl and 0.1% BSA (pH 7.0) using 2 mM 4-Methylumbelliferyl N-acetyl-β-D-glucosaminide dihydrate (Sigma M2133) dissolved in ddH2O, as a substrate. The amount of purified human O-GlcNAcase enzyme used in the reaction was 0.7 nM. Test compound of varying concentrations was added to the enzyme prior to initiation of the reaction. The reaction was performed at room temperature in a 96-well plate and was initiated with the addition of substrate. […] The slope of product production was determined for each concentration of compound tested and plotted, using standard curve fitting algorithms for sigmoidal dose response curves. The values for a four parameter logistic curve fit of the data were determined.

hPgp = target: T2, hPgp (Homo sapiens, UniProt P08183); assay: hPgp efflux ratio (Papp B→A/A→B ratio); assay type: in vitro ADME; conditions: LLC-PK1
T2 construct: expressed in transfected cells; host or cells: LLC-PK1 cells
T2 sequence (P08183 whole entry): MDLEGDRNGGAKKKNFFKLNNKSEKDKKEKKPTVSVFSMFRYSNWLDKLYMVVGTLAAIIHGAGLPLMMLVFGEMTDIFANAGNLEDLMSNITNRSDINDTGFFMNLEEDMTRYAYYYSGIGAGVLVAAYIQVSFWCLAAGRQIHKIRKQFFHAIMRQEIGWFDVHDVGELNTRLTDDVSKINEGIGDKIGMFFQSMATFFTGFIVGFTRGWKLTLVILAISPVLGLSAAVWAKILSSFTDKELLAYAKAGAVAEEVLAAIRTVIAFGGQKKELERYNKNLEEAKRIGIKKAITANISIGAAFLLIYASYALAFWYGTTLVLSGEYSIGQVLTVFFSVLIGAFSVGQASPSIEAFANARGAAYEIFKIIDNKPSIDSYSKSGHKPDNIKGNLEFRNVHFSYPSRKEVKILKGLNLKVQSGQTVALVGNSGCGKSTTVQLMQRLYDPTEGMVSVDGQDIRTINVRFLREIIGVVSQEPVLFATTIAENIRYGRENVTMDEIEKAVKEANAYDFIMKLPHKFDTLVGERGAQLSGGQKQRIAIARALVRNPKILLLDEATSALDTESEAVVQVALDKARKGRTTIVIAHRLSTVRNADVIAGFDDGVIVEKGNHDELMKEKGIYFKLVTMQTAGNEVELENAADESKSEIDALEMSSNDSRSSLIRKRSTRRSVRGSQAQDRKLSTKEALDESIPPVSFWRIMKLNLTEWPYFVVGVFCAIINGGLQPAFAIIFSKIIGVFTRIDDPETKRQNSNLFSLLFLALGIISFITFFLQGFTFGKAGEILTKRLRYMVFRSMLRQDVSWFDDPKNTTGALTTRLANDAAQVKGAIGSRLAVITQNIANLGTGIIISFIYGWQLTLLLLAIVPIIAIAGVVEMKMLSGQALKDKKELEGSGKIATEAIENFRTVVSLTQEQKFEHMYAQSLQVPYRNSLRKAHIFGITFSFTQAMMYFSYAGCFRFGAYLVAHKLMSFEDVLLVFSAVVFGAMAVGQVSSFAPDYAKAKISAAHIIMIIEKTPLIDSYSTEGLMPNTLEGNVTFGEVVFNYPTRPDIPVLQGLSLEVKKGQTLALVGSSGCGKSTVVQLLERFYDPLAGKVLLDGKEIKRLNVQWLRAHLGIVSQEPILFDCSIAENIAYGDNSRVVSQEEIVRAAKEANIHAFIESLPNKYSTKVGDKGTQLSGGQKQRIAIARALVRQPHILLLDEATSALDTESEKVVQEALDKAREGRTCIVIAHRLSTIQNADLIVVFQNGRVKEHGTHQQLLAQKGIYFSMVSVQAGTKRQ
Description: (§1) Bi-directional transport was evaluated in LLC-PK1 cells in order to determine apparent permeability (Papp). LLC-PK1 cells can form a tight monolayer and therefore can be used to assess vectorial transport of compounds from basolateral to apical (B→A) and from apical to basolateral (A→B).
(§2) To determine Papp LLC-PK1 cells were cultured in 96-well transwell culture plates (Millipore). Solutions containing the test compounds (1 μM) were prepared in Hank's Balanced Salt Solution with 10 mM HEPES. Substrate solution (150 μL) was added to either the apical (A) or the basolateral (B) compartment of the culture plate, and buffer (150 μL) was added to the compartment opposite to that containing the compound. At t=3 h, 50 μL samples were removed from both sides of monolayers dosed with test compound and placed in 96 well plates, scintillant (200 μL) or internal standard (100 μL labetolol 1 μM) was added to the samples and concentration was determined by liquid scintillation counting in a MicroBeta Wallac Trilux scintillation counter (Perkin Elmer Life Sciences, Boston, Mass.) or by LCMS/MS (Applied Biosystems SCIEX API 5000 triple quadruple mass spectrometer). [^3H]Verapamil (1 μM) was used as the positive control. The experiment was performed in triplicate.

[1] = Determination of apparent permeability (Papp), bi-directional transport in LLC-PK1 cells; assay type: in vitro ADME; conditions: pig, t=3 h, average of A to B and B to A
Description: as §1, §2

[2] = purified human O-GlcNAcase 0.7 nM, 2 mM substrate, pH 7.0, room temperature, Cheng-Prusoff, read-out: Ki

| Structure (SMILES) | Ki (human O-GlcNAcase; [2]) | efflux ratio at 3 h, 1 μM (hPgp) | Papp at 3 h, 1 μM [1] | Ki (human O-GlcNAcase) |
| --- | --- | --- | --- | --- |
| CNC1=N[C@@H]2[C@@H](O)[C@H](O)[C@@H](CCCc3ccc(OC)cc3)O[C@@H]2S1 [Example 34, (3aR,5R,6S,7R,7aR)-5-[3-(4-methoxyphenyl)propyl]-2-(methylamino)-5,6,7,7a-tetrahydro-3aH-pyrano[3,2-d][1,3]thiazole-6,7-diol] | 0.0111 µM | 3.4 | 25 ×10⁻⁶ cm/s | – |
| CCNC1=N[C@@H]2[C@@H](O)[C@H](O)[C@@H](CCl)O[C@@H]2S1 [Example 54, (3aR,5S,6S,7R,7aR)-5-(chloromethyl)-2-(ethylamino)-5,6,7,7a-tetrahydro-3aH-pyrano[3,2-d]thiazole-6,7-diol] | – | – | – | 0.0023 µM |
| CCNCC[C@H]1O[C@@H]2SC(NC)=N[C@@H]2[C@@H](O)[C@@H]1O [Example 55, (3aR,5R,6S,7R,7aR)-5-(2-(ethylamino)ethyl)-2-(methylamino)-5,6,7,7a-tetrahydro-3aH-pyrano[3,2-d]thiazole-6,7-diol] | 0.0093 µM | – | – | – |
| CN(C)C1=N[C@@H]2[C@@H](O)[C@H](O)[C@@H](C(C)(C)Cl)O[C@@H]2S1 [Example 56, (3aR,5S,6S,7R,7aR)-5-(2-chloropropan-2-yl)-2-(dimethylamino)-5,6,7,7a-tetrahydro-3aH-pyrano[3,2-d]thiazole-6,7-diol] | 0.207 µM | – | – | – |
| C#C[C@H]1O[C@@H]2SC(NCC)=N[C@@H]2[C@@H](O)[C@@H]1O [Example 57, (3aR,5R,6S,7R,7aR)-2-(ethylamino)-5-ethynyl-5,6,7,7-tetrahydro-3aH-pyrano[3,2-d]thiazole-6,7-diol] | 0.837 µM | – | – | – |
| CCNC1=N[C@@H]2[C@@H](O)[C@H](O)[C@@H](C#N)O[C@@H]2S1 [Example 58, (3aR,5R,6S,7R,7aR)-2-(ethylamino)-6,7-dihydroxy-5,6,7,7a-tetrahydro-3aH-pyrano[3,2-d]thiazole-5-carbonitrile] | 0.601 µM | – | – | – |
| CNC1=N[C@@H]2[C@@H](O)[C@H](O)[C@@H](CSc3ccccc3)O[C@@H]2S1 [Example 59, (3aR,5 S,6S,7R,7aR)-2-(methylamino)-5-((phenylthio)methyl)-5,6,7,7a-tetrahydro-3aH-pyrano[3,2-d]thiazole-6,7-diol] | 0.0019 µM | – | – | – |
| CNC1=N[C@@H]2[C@@H](O)[C@H](O)[C@@H](CS(=O)(=O)c3ccccc3)O[C@@H]2S1 [Example 60, (3aR,5 S,6S,7R,7aR)-2-(methylamino)-5-((phenylsulfonyl)methyl)-5,6,7,7a-tetrahydro-3 aH-pyrano[3,2-d]thiazole-6,7-diol] | 0.075 µM | – | – | – |
| CNC1=N[C@@H]2[C@@H](O)[C@H](O)[C@@H](CSCc3ccccc3)O[C@@H]2S1 [Example 61, (3aR,5S,6S,7R,7aR)-5-((benzylthio)methyl)-2-(methylamino)-5,6,7,7a-tetrahydro-3aH-pyrano[3,2-d]thiazole-6,7-diol] | 0.0041 µM | – | – | – |
| CNC1=N[C@@H]2[C@@H](O)[C@H](O)[C@@H](CS(=O)(=O)Cc3ccccc3)O[C@@H]2S1 [Example 62, (3aR,5S,6S,7R,7aR)-5-((benzylsulfonyl)methyl)-2-(methylamino)-5,6,7,7a-tetrahydro-3aH-pyrano[3,2-d]thiazole-6,7-diol] | 0.352 µM | 1.1 | 1.3 ×10⁻⁶ cm/s | – |
